# Assay results reported in ChEMBL document CHEMBL1201862, “PubChem BioAssay data set” (2004).
#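 Method: 48-hour compound exposure of cells in 96-well plates, five concentrations, linear interpolation of endpoints. GI50: concentration for 50% inhibition of growth.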 Calls of active or inactive are those of the source. Rule as the data show it: active = GI50 up to about 1.1 µM and inactive = higher.
# How the values were obtained:
# Assay in all cases: inhibition of tumour cell growth, NCI panel, 48 h
# HOP-92 = test system: HOP-92
# ACHN = test system: ACHN
# NCI/ADR-RES = test system: NCI/ADR-RES
# UO-31 = test system: UO-31
# T47D = test system: T47D
# M14 = test system: M14
# SN12C = test system: SN12C
# HCT-116 = test system: HCT-116
# DU-145 = test system: DU-145
# HCT-15 = test system: HCT-15
# MDA-MB-231 = test system: MDA-MB-231
# NCI-H460 = test system: NCI-H460
# U-251 = test system: U-251
# A498 = test system: A498
# MOLT-4 = test system: MOLT-4
# A549 = test system: A549
# SW-620 = test system: SW-620
# SK-MEL-28 = test system: SK-MEL-28
# Malme-3M = test system: Malme-3M
# SR = test system: SR
SMILES,GI50 (HOP-92),GI50 (ACHN),GI50 (NCI/ADR-RES),GI50 (UO-31),GI50 (T47D),GI50 (M14),GI50 (SN12C),GI50 (HCT-116),GI50 (DU-145),GI50 (HCT-15) [µM],GI50 (MDA-MB-231),GI50 (NCI-H460),GI50 (U-251),GI50 (A498),GI50 (MOLT-4),GI50 (A549),GI50 (SW-620),GI50 (SK-MEL-28),GI50 (Malme-3M),GI50 (SR)
N#Cc1ccc(N2CCOCC2)cc1,> 100 µM (inactive),> 100 µM (inactive),> 100 µM (inactive),> 100 µM (inactive),> 100 µM (inactive),> 100 µM (inactive),> 100 µM (inactive),> 100 µM (inactive),> 100 µM (inactive),> 100,> 100 µM (inactive),> 100 µM (inactive),> 100 µM (inactive),42.8 µM (inactive),> 100 µM (inactive),> 100 µM (inactive),> 100 µM (inactive),> 100 µM (inactive),,
COc1cc(/C=C2\N=C(c3ccccc3)N(c3nc4c(OC)ccc(OC)c4s3)C2=O)cc(OC)c1OC,> 100 µM (inactive),> 100 µM (inactive),> 100 µM (inactive),> 100 µM (inactive),32.4 µM (inactive),> 100 µM (inactive),> 100 µM (inactive),66.8 µM (inactive),> 100 µM (inactive),95.7,> 100 µM (inactive),> 100 µM (inactive),56.1 µM (inactive),> 100 µM (inactive),35.2 µM (inactive),> 100 µM (inactive),49.7 µM (inactive),> 100 µM (inactive),> 100 µM (inactive),
COc1c(/C=C/C(C)(C)O)cc(C2CC(=O)c3c(O)cc(O)cc3O2)cc1CC=C(C)C (configuration not stated),10.3 µM (inactive),7.6 µM (inactive),12.1 µM (inactive),0.762 µM (active),11 µM (inactive),8.45 µM (inactive),6.27 µM (inactive),9.14 µM (inactive),9.06 µM (inactive),8.2,8.22 µM (inactive),8.73 µM (inactive),7.71 µM (inactive),9.48 µM (inactive),11.7 µM (inactive),9.75 µM (inactive),17.3 µM (inactive),13.2 µM (inactive),10.1 µM (inactive),
CC(=O)OC/C=C(/CCl)CCC(Br)C(C)(C)Br.CC(=O)OC/C=C(\CCl)CCC(Br)C(C)(C)Br (configuration not stated),,> 10 µM (inactive),> 10 µM (inactive),> 10 µM (inactive),> 10 µM (inactive),> 10 µM (inactive),> 10 µM (inactive),> 10 µM (inactive),> 10 µM (inactive),> 10,> 10 µM (inactive),> 10 µM (inactive),> 10 µM (inactive),> 10 µM (inactive),> 10 µM (inactive),> 10 µM (inactive),> 10 µM (inactive),> 10 µM (inactive),> 10 µM (inactive),
O=c1[nH]c(=O)n([C@@H]2O[C@H](CO)[C@@H](O)[C@@H]2F)cc1I [FIALURIDINE],> 100 µM (inactive),> 100 µM (inactive),> 100 µM (inactive),> 100 µM (inactive),> 100 µM (inactive),77.6 µM (inactive),> 100 µM (inactive),> 100 µM (inactive),> 100 µM (inactive),> 100,> 100 µM (inactive),24 µM (inactive),> 100 µM (inactive),59.4 µM (inactive),56 µM (inactive),44.2 µM (inactive),> 100 µM (inactive),> 100 µM (inactive),> 100 µM (inactive),
O=C1c2ccccc2C(C2c3ccccc3C(=O)c3cc(Br)ccc32)c2ccc(Br)cc21 (configuration not stated),> 100 µM (inactive),> 100 µM (inactive),> 100 µM (inactive),> 100 µM (inactive),> 100 µM (inactive),> 100 µM (inactive),> 100 µM (inactive),59.2 µM (inactive),> 100 µM (inactive),> 100,> 100 µM (inactive),,> 100 µM (inactive),> 100 µM (inactive),61 µM (inactive),> 100 µM (inactive),> 100 µM (inactive),> 100 µM (inactive),> 100 µM (inactive),
C[C@H]1S[C@H](c2c(Cl)cccc2Cl)N2Cc3ccccc3N=C12,17.9 µM (inactive),12.4 µM (inactive),,12.4 µM (inactive),12.4 µM (inactive),11.6 µM (inactive),29.2 µM (inactive),4.35 µM (inactive),13.1 µM (inactive),14.9,23.9 µM (inactive),11.3 µM (inactive),23.4 µM (inactive),24.5 µM (inactive),8.83 µM (inactive),15.2 µM (inactive),25.1 µM (inactive),,,8.07 µM (inactive)
CC(C)(NC1=NCCO1)c1ccccc1,> 100 µM (inactive),> 100 µM (inactive),> 100 µM (inactive),> 100 µM (inactive),> 100 µM (inactive),> 100 µM (inactive),> 100 µM (inactive),> 100 µM (inactive),> 100 µM (inactive),> 100,> 100 µM (inactive),> 100 µM (inactive),> 100 µM (inactive),> 100 µM (inactive),> 100 µM (inactive),> 100 µM (inactive),> 100 µM (inactive),> 100 µM (inactive),> 100 µM (inactive),
COc1ccc(/C=C/[N+](=O)[O-])cc1,,7.48 µM (inactive),30.7 µM (inactive),11.3 µM (inactive),,2.79 µM (inactive),16.3 µM (inactive),6.67 µM (inactive),6.52 µM (inactive),3.7,19.4 µM (inactive),6.9 µM (inactive),4.03 µM (inactive),5.15 µM (inactive),2.8 µM (inactive),2.51 µM (inactive),2.83 µM (inactive),5.81 µM (inactive),19.1 µM (inactive),2.03 µM (inactive)
O=C1CSC(=S)N1c1ccc(F)cc1F,30.2 µM (inactive),53.7 µM (inactive),42.2 µM (inactive),89.9 µM (inactive),30 µM (inactive),40.9 µM (inactive),> 100 µM (inactive),> 100 µM (inactive),> 100 µM (inactive),36.2,> 100 µM (inactive),83.2 µM (inactive),59.2 µM (inactive),67.9 µM (inactive),,61.9 µM (inactive),> 100 µM (inactive),78.7 µM (inactive),66.5 µM (inactive),
CC(=O)OCCC[C@@H]1C(=C(C)C)CCC2[C@@]1(C)CC[C@@]1(C)C[C@](C)(CCC=C(C)C)CC[C@]21C (some centres not stated),,> 100 µM (inactive),> 100 µM (inactive),13.5 µM (inactive),> 100 µM (inactive),> 100 µM (inactive),> 100 µM (inactive),> 100 µM (inactive),> 100 µM (inactive),> 100,> 100 µM (inactive),> 100 µM (inactive),> 100 µM (inactive),> 100 µM (inactive),> 100 µM (inactive),> 100 µM (inactive),> 100 µM (inactive),> 100 µM (inactive),> 100 µM (inactive),
N#Cc1c(N)n(-c2cccc(C(=O)O)c2)c(=O)c2cc([N+](=O)[O-])ccc12,> 100 µM (inactive),> 100 µM (inactive),> 100 µM (inactive),> 100 µM (inactive),> 100 µM (inactive),,> 100 µM (inactive),> 100 µM (inactive),> 100 µM (inactive),> 100,> 100 µM (inactive),> 100 µM (inactive),> 100 µM (inactive),> 100 µM (inactive),,0.505 µM (active),> 100 µM (inactive),> 100 µM (inactive),,
COc1cc(/C=C/C(C)=O)ccc1OP(=O)(O)O,> 100 µM (inactive),> 100 µM (inactive),,> 100 µM (inactive),,> 100 µM (inactive),> 100 µM (inactive),> 100 µM (inactive),> 100 µM (inactive),> 100,> 100 µM (inactive),> 100 µM (inactive),> 100 µM (inactive),> 100 µM (inactive),> 100 µM (inactive),> 100 µM (inactive),> 100 µM (inactive),> 100 µM (inactive),> 100 µM (inactive),
O=C(Cn1c2c(c3ccccc31)CCCC2)N1CCCC1,> 100 µM (inactive),> 100 µM (inactive),96.4 µM (inactive),38.4 µM (inactive),,> 100 µM (inactive),> 100 µM (inactive),63.1 µM (inactive),,80.7,,> 100 µM (inactive),,65 µM (inactive),,> 100 µM (inactive),> 100 µM (inactive),> 100 µM (inactive),> 100 µM (inactive),88.9 µM (inactive)
O=c1cc(CO)n(CCc2c[nH]c3ccccc23)cc1O,30.6 µM (inactive),66.5 µM (inactive),32.3 µM (inactive),49.1 µM (inactive),24.5 µM (inactive),47.1 µM (inactive),36.2 µM (inactive),71.9 µM (inactive),28.2 µM (inactive),51.2,31.3 µM (inactive),33.3 µM (inactive),39.6 µM (inactive),,6.21 µM (inactive),> 100 µM (inactive),> 100 µM (inactive),,13.4 µM (inactive),
C1=NN2C(c3ccccc3)=NOC2C2C(c3ccccc3)=NOC12 (configuration not stated),,98.6 µM (inactive),97.9 µM (inactive),> 100 µM (inactive),,> 100 µM (inactive),,> 100 µM (inactive),> 100 µM (inactive),> 100,> 100 µM (inactive),> 100 µM (inactive),,,,> 100 µM (inactive),,,> 100 µM (inactive),
